Test results published in patent publication US12144821B1, “Selective 3-prenyl 5-methyl ether, 7-o-rhamnoside flavone for the treatment of hepatic cancer” (KING FAISAL UNIVERSITY, priority 2024, dated 2024).

Tests used:
Format in all cases: cell-based, human
HepG2 cells [1] = assay: Invasion assay; details: non-cytotoxic concentrations, FIGS. 3A-3B
Method: (§1) During the metastatic cascade of carcinomas, tumor migration and invasion is the first and most important steps. It involves profound changes in cell adhesion, allowing tumour cells to dissociate and migrate from the primary site. […] Several essential steps of metastasis, including migration (FIGS. 2A-2B) invasion (FIG. 3A-3B) of human liver cancer cells, are inhibited by the 3-prenyl 5-methyl ether, 7-O-rhamnoside.
(§2) The migration and invasion assays were conducted by photographing the cells that migrated the membrane (200× magnification). As illustrated in FIGS. 2A-2B HepG2 cells were treated with 3-prenyl 5-methyl ether, 7-O-rhamnoside at indicated doses for 24 hours. The percentage inhibition of migrating cells was quantified and expressed based on untreated cells (control) represented 100%. The migration was determined by the areas of the wound closure calculated from three microscopic fields per sample.
As illustrated in FIGS. 3A-3B, invasiveness was determined by counting cells in three microscopic fields per sample. The inhibitory percentage of invading cells was quantified and expressed with untreated cells (control) representing 100%. Values are mean±SD of three independent experiments. (p<0.01 compared untreated cells).

HepG2 cells [2] = assay: Migration assay (wound closure); details: non-cytotoxic concentrations, 24 hours, FIGS. 2A-2B
Method: as §1, §2

HepG2 cancer cell line = assay: Cell viability assay (MTT), antiproliferative screening; details: FIGS. 1A-1C
Method: Cells (HepG2) were provided from the American Type Culture Collection (ATCC) unless otherwise stated. Cells were grown in ATCC-formulated specific DMEM/F12 medium for each cell line with supplements of 5% fetal bovine serum, 10 U/ml penicillin, 10 μg/ml streptomycin, and 4% glutamine. All cell lines were placed in a humidified incubator a 37° C. in an atmosphere of 5% CO2 and 95% air. Cells were cultured into two groups. One as control cells and the other as cell lines treated for one day (3-prenyl 5-methyl ether, 7-O-rhamnoside-treated cells).
The cell viability will be tested using MTT. […] The culture supernatant was removed, the remaining MTT formazan crystals was dissolved in 400 μL of DMSO, and the absorbance was measured at 570 nm using an ELISA micro-plate reader (Bio-Tek Instruments, Winooski, VT, USA). The effect of 3-prenyl 5-methyl ether, 7-O-rhamnoside on cell viability was assessed as the percentage of viable cells compared with the vehicle-treated control cells, which were arbitrarily designated as 100%.
The cells were treated with increasing concentrations of 3-prenyl 5-methyl ether, 7-O-rhamnoside, (0-5, 10, 15, 20 and 25 μmol/mL for 24,48 and 72 h. The viability was assessed using the MTT assay. Values are mean±SD of three independent experiments. (p<0.01 compared untreated cells).

COc1cc(OC2OC(C)C(O)C(O)C2O)cc2oc(-c3ccc(O)cc3)c(CC=C(C)C)c(=O)c12 (stereo not shown) [3-prenyl 5-methyl ether, 7-O-rhamnoside, apigenin 3-prenyl 5-methyl ether, 7-O-rhamnoside]
invasion of human liver cancer cells (HepG2 cells [1]): inhibited | migration of human liver cancer cells (HepG2 cells [2]): inhibited | cytotoxicity for the HepG2 cancer cell line (cell viability, MTT) (HepG2 cancer cell line; 0, 5, 10, 15, 20 and 25 μmol, 24, 48 and 72 hrs): potentially cytotoxic | dose-dependent potentiation / enhancement of anti-proliferative effects (HepG2 cancer cell line; seen at both 15 and 20 μmol): Potentiation
